Measured values published in patent US8697031B2, “Dual function polymer micelles” (Case Western Reserve University, priority 2004, dated 2014).
Where no end group is shown, it is not given here.

Test system: SLK tumor endothelial cells
Assay: Flow cytometry analysis of micelle uptake
Type: cell-based
Conditions: SLK cells pre-incubated with free blocking peptide at 9 mM, then co-incubated with micelles
Procedure: SLK cells were seeded at 125,000 cells/well in 6-well plates in 2 mL DMEM with 10% FBS. After 24 h, 1 mg of micelles (from 3.3 mg/ml micelle suspension) for each micelle formulation with different cRGD density (0, 5, 16, 76% cRGD) was added into each well and incubated at 37° C. for 2 h. Then, cells were washed, trypsinized and neutralized. After centrifugation at 1200 rpm for 5 min, cells were re-suspended in 1 mL PBS, followed by filtration and analysis using flow cytometry. […] In the control experiment, SLK cells were first incubated with a free blocking peptide, Ala-Ala-Arg-Gly-Asp-Tyr (AARGDY) (SEQ ID NO: 757), and then co-incubated with 76% cRGD-functionalized micelles.

AARGDY
inhibition of uptake of 76% cRGD-functionalized micelles: ~100%
